Results from ChEMBL document CHEMBL1135259, “Azapeptides as inhibitors of the hepatitis C virus NS3 serine protease” (Bioorg Med Chem Lett, 2002).
pKi: −log10 of the molar value.

How the values were obtained:
Set-up in all cases: species or system Hepacivirus hominis
NS3 [1] = target: T1, NS3 (Hepatitis C virus, UniProt A3EZJ3); assay: Binding affinity against Hepatitis C virus NS3 protease
NS3 [2] = target: T1, NS3; assay: Compound was evaluated for its binding affinity against NS3 protease
NS3 [3] = target: T1, NS3; assay: Binding affinity against Hepatitis C virus NS3 protease was calculated as Kcat

T1 sequence (A3EZJ3 whole entry): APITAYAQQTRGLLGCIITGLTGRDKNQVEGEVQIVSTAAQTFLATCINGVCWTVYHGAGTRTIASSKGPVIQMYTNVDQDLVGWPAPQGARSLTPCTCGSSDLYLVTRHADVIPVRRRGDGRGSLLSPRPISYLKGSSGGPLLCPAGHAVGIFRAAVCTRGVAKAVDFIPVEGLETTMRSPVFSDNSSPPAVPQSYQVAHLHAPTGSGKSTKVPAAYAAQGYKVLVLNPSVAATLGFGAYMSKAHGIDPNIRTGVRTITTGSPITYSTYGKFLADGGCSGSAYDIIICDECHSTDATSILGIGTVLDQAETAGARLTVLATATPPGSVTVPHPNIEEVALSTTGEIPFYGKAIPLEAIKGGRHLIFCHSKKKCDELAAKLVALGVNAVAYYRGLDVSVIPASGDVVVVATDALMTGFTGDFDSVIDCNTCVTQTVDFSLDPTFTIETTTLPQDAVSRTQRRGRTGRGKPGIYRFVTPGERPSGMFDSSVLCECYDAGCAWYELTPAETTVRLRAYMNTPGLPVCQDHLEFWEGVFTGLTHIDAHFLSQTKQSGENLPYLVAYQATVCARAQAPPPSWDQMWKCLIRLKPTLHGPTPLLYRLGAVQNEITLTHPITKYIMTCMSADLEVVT

| SMILES | pKi (NS3 [1]) | pKi (NS3 [2]) | Ki (NS3 [3]) |
| --- | --- | --- | --- |
| CCCN(NC(=O)[C@H]1CCCN1C(=O)[C@@H](NC(=O)[C@@H](NC(=O)[C@H](CC(=O)O)NC(=O)[C@H](CCC(=O)O)NC(=O)[C@@H](NC(=O)[C@H](CC(=O)O)NC(C)=O)[C@@H](C)O)C(C)C)C(C)C)C(=O)Oc1ccc([N+](=O)[O-])cc1 | 5.70 | 5.52 | 0.5 min⁻¹ |
| CCCN(NC(=O)[C@H]1CCCN1C(=O)[C@@H](NC(=O)[C@@H](NC(=O)[C@H](CC(=O)O)NC(=O)[C@H](CCC(=O)O)NC(=O)[C@@H](NC(=O)[C@H](CC(=O)O)NC(C)=O)[C@@H](C)O)C(C)C)C(C)C)C(=O)Sc1ccccc1 | 3.80 | – | – |
| CCCN(NC(=O)[C@H]1CCCN1C(=O)[C@@H](NC(=O)[C@@H](NC(=O)[C@H](CC(=O)O)NC(=O)[C@H](CCC(=O)O)NC(=O)[C@@H](NC(=O)[C@H](CC(=O)O)NC(C)=O)[C@@H](C)O)C(C)C)C(C)C)C(=O)c1ccc(S(=O)(=O)F)cc1 | < 4.00 | – | – |
| CCCC(=O)N(CCC)NC(=O)[C@H]1CCCN1C(=O)[C@@H](NC(=O)[C@@H](NC(=O)[C@H](CC(=O)O)NC(=O)[C@H](CCC(=O)O)NC(=O)[C@@H](NC(=O)[C@H](CC(=O)O)NC(C)=O)[C@@H](C)O)C(C)C)C(C)C | < 4.00 | – | – |
| CCCN(NC(=O)[C@H]1CCCN1C(=O)[C@@H](NC(=O)[C@@H](NC(=O)[C@H](CC(=O)O)NC(=O)[C@H](CCC(=O)O)NC(=O)[C@@H](NC(=O)[C@H](CC(=O)O)NC(C)=O)[C@@H](C)O)C(C)C)C(C)C)C(=O)OC(Cl)C(Cl)(Cl)Cl (stereo partly drawn) | 6.70 | – | – |
| CCCN(NC(=O)[C@H]1CCCN1C(=O)[C@@H](NC(=O)[C@@H](NC(=O)[C@H](CC(=O)O)NC(=O)[C@H](CCC(=O)O)NC(=O)[C@@H](NC(=O)[C@H](CC(=O)O)NC(C)=O)[C@@H](C)O)C(C)C)C(C)C)C(=O)OCc1ccc([N+](=O)[O-])cc1 | 4.35 | – | – |
